# According to the Kinase Knowledgebase extract (Sharma et al. 2016):
# Biological target: PIK3CB;PIK3CG;PIK3CD;PIK3CA (human) (UniProt P48736)
# Experiment: Inhibition of PIK3CA/PIK3CB/PIK3CD/PIK3CG Kinase Activity
row,Structure (SMILES),IC50
1,COC[C@H]1OC(=O)/C(=C/N)C2=C(O)C(=O)C3=C([C@H](OC(C)=O)C[C@]4(C)C(=O)CC[C@@H]34)[C@]21C,2 nM
2,COC[C@H]1OC(=O)/C(=C/N2CCCC2)C2=C(O)C(=O)C3=C([C@H](OC(C)=O)C[C@]4(C)C(=O)CC[C@@H]34)[C@]21C,1.1 nM
3,C=CCN(/C=C1/C(=O)O[C@H](COC)[C@@]2(C)C1=C(O)C(=O)C1=C2[C@H](OC(C)=O)C[C@]2(C)C(=O)CC[C@@H]12)CC=C,0.1 nM
4,COC[C@H]1OC(=O)/C(=C/Sc2ccccc2)C2=C(O)C(=O)C3=C([C@H](OC(C)=O)C[C@]4(C)C(=O)CC[C@@H]34)[C@]21C,1 nM
5,COC[C@H]1OC(=O)/C(=C/NCCCN(C)C)C2=C(O)C(=O)C3=C([C@H](OC(C)=O)C[C@]4(C)C(=O)CC[C@@H]34)[C@]21C,1 nM
6,C=CCN/C=C1/C(=O)O[C@H](COC)[C@@]2(C)C1=C(O)C(=O)C1=C2[C@H](OC(C)=O)C[C@]2(C)C(=O)CC[C@@H]12,7.5 nM
7,COC[C@H]1OC(=O)/C(=C/NCCc2ccccc2)C2=C(O)C(=O)C3=C([C@H](OC(C)=O)C[C@]4(C)C(=O)CC[C@@H]34)[C@]21C,2 nM
8,COC[C@H]1OC(=O)/C(=C/SC(C)C)C2=C(O)C(=O)C3=C([C@H](OC(C)=O)C[C@]4(C)C(=O)CC[C@@H]34)[C@]21C,0.1 nM
9,COC[C@H]1OC(=O)/C(=C/NCC(N)=O)C2=C(O)C(=O)C3=C([C@H](OC(C)=O)C[C@]4(C)C(=O)CC[C@@H]34)[C@]21C,10 nM
10,COC[C@H]1OC(=O)/C(=C/N(C)Cc2ccccc2)C2=C(O)C(=O)C3=C([C@H](OC(C)=O)C[C@]4(C)C(=O)CC[C@@H]34)[C@]21C,0.8 nM
11,COC[C@H]1OC(=O)/C(=C/N(Cc2ccccc2)Cc2ccccc2)C2=C(O)C(=O)C3=C([C@H](OC(C)=O)C[C@]4(C)C(=O)CC[C@@H]34)[C@]21C,0.3 nM
